Source: the supplement of paper PMC13380429

Key:
Settings in all cases: 72 h
[1] = tested on: HepG2; assay: relative viability EC50 (midpoint between 100% and the lowest measured viability); higher = less toxic
[2] = tested on: Caco-2; assay: as above
[3] = tested on: Vero E6; assay: as above
[4] = tested on: U2OS; assay: as above
[5] = tested on: Calu-3; assay: as above
[6] = tested on: HepG2; assay: drug sensitivity score (DSS) for viability; higher = more toxic; extreme values may be limits of the assay
[7] = tested on: Caco-2; assay: as above
[8] = tested on: Vero E6; assay: as above
[9] = tested on: U2OS; assay: as above
[10] = tested on: Calu-3; assay: as above
[11] = tested on: HepG2; assay: cell viability relative to DMSO; higher = less toxic
[12] = tested on: Caco-2; assay: as above
[13] = tested on: Vero E6; assay: as above
[14] = tested on: U2OS; assay: as above
[15] = tested on: Calu-3; assay: as above

CC(=O)Nc1ccc(O)cc1 [paracetamol]
relative viability EC50 [1]: > 10 µM | relative viability EC50 [2]: > 10 µM | relative viability EC50 [3]: > 10 µM | relative viability EC50 [4]: > 10 µM | relative viability EC50 [5]: > 10 µM | drug sensitivity score [6]: 0.6 | drug sensitivity score [7]: 0 | drug sensitivity score [8]: 0 | drug sensitivity score [9]: 0 | drug sensitivity score [10]: 0 | cell viability ([11]; 1 nM): 99.5% | cell viability ([11]; 10 nM): 104% | cell viability ([11]; 100 nM): 88.8% | cell viability ([11]; 1000 nM): 94.3% | cell viability ([11]; 10000 nM): 92.5% | cell viability ([12]; 1 nM): 91.7% | cell viability ([12]; 10 nM): 103% | cell viability ([12]; 100 nM): 94.7% | cell viability ([12]; 1000 nM): 98.2% | cell viability ([12]; 10000 nM): 98.8% | cell viability ([13]; 1 nM): 97.9% | cell viability ([13]; 10 nM): 95.4% | cell viability ([13]; 100 nM): 102% | cell viability ([13]; 1000 nM): 92.5% | cell viability ([13]; 10000 nM): 102% | cell viability ([14]; 1 nM): 99.9% | cell viability ([14]; 10 nM): 101% | cell viability ([14]; 100 nM): 95.4% | cell viability ([14]; 1000 nM): 102% | cell viability ([14]; 10000 nM): 93.7% | cell viability ([15]; 1 nM): 94.7% | cell viability ([15]; 10 nM): 96.6% | cell viability ([15]; 100 nM): 97.2% | cell viability ([15]; 1000 nM): 99.8% | cell viability ([15]; 10000 nM): 99%

Oc1cc(O)c2c(c1)O[C@H](c1ccc(O)c(O)c1)[C@@H](O)C2 [cianidanol]
relative viability EC50 [1]: > 10 µM | relative viability EC50 [2]: > 10 µM | relative viability EC50 [3]: > 10 µM | relative viability EC50 [4]: > 10 µM | relative viability EC50 [5]: > 10 µM | drug sensitivity score [6]: 0 | drug sensitivity score [7]: 0 | drug sensitivity score [8]: 0 | drug sensitivity score [9]: 0 | drug sensitivity score [10]: 0 | cell viability ([11]; 1 nM): 100% | cell viability ([11]; 10 nM): 99.8% | cell viability ([11]; 100 nM): 84.6% | cell viability ([11]; 1000 nM): 102% | cell viability ([11]; 10000 nM): 109% | cell viability ([12]; 1 nM): 89.8% | cell viability ([12]; 10 nM): 89.6% | cell viability ([12]; 100 nM): 92.6% | cell viability ([12]; 1000 nM): 90.4% | cell viability ([12]; 10000 nM): 92.6% | cell viability ([13]; 1 nM): 98% | cell viability ([13]; 10 nM): 88.5% | cell viability ([13]; 100 nM): 103% | cell viability ([13]; 1000 nM): 94.5% | cell viability ([13]; 10000 nM): 113% | cell viability ([14]; 1 nM): 93.9% | cell viability ([14]; 10 nM): 96.2% | cell viability ([14]; 100 nM): 95.6% | cell viability ([14]; 1000 nM): 98.5% | cell viability ([14]; 10000 nM): 100% | cell viability ([15]; 1 nM): 96.9% | cell viability ([15]; 10 nM): 101% | cell viability ([15]; 100 nM): 97.4% | cell viability ([15]; 1000 nM): 107% | cell viability ([15]; 10000 nM): 101%

O=C(Cn1c(=O)sc2ccc(Cl)cc21)N1CCN(CCO)CC1 [tiaramide]
relative viability EC50 [1]: > 10 µM | relative viability EC50 [2]: > 10 µM | relative viability EC50 [3]: > 10 µM | relative viability EC50 [4]: > 10 µM | relative viability EC50 [5]: > 10 µM | drug sensitivity score [6]: 0.2 | drug sensitivity score [7]: 0 | drug sensitivity score [8]: 0 | drug sensitivity score [9]: 0 | drug sensitivity score [10]: 0 | cell viability ([11]; 1 nM): 94.9% | cell viability ([11]; 10 nM): 109% | cell viability ([11]; 100 nM): 108% | cell viability ([11]; 1000 nM): 88.8% | cell viability ([11]; 10000 nM): 89.3% | cell viability ([12]; 1 nM): 112% | cell viability ([12]; 10 nM): 91.4% | cell viability ([12]; 100 nM): 96.7% | cell viability ([12]; 1000 nM): 96.3% | cell viability ([12]; 10000 nM): 101% | cell viability ([13]; 1 nM): 107% | cell viability ([13]; 10 nM): 95.2% | cell viability ([13]; 100 nM): 94.3% | cell viability ([13]; 1000 nM): 101% | cell viability ([13]; 10000 nM): 93.4% | cell viability ([14]; 1 nM): 101% | cell viability ([14]; 10 nM): 101% | cell viability ([14]; 100 nM): 98.7% | cell viability ([14]; 1000 nM): 100% | cell viability ([14]; 10000 nM): 98.7% | cell viability ([15]; 1 nM): 92.2% | cell viability ([15]; 10 nM): 101% | cell viability ([15]; 100 nM): 90.6% | cell viability ([15]; 1000 nM): 92.4% | cell viability ([15]; 10000 nM): 105%

O=C(OCCN1CCOCC1)C1(c2ccccc2)CCCCC1 [PRE-084]
relative viability EC50 [1]: > 10 µM | relative viability EC50 [2]: > 10 µM | relative viability EC50 [3]: > 10 µM | relative viability EC50 [4]: > 10 µM | relative viability EC50 [5]: > 10 µM | drug sensitivity score [6]: 0 | drug sensitivity score [7]: 0.4 | drug sensitivity score [8]: 0 | drug sensitivity score [9]: 0 | drug sensitivity score [10]: 0 | cell viability ([11]; 1 nM): 106% | cell viability ([11]; 10 nM): 102% | cell viability ([11]; 100 nM): 95.6% | cell viability ([11]; 1000 nM): 108% | cell viability ([11]; 10000 nM): 100% | cell viability ([12]; 1 nM): 108% | cell viability ([12]; 10 nM): 102% | cell viability ([12]; 100 nM): 93.9% | cell viability ([12]; 1000 nM): 90.8% | cell viability ([12]; 10000 nM): 89.1% | cell viability ([13]; 1 nM): 100% | cell viability ([13]; 10 nM): 99.7% | cell viability ([13]; 100 nM): 106% | cell viability ([13]; 1000 nM): 102% | cell viability ([13]; 10000 nM): 105% | cell viability ([14]; 1 nM): 99.3% | cell viability ([14]; 10 nM): 100% | cell viability ([14]; 100 nM): 96.5% | cell viability ([14]; 1000 nM): 107% | cell viability ([14]; 10000 nM): 97.4% | cell viability ([15]; 1 nM): 101% | cell viability ([15]; 10 nM): 107% | cell viability ([15]; 100 nM): 97.2% | cell viability ([15]; 1000 nM): 103% | cell viability ([15]; 10000 nM): 93%

CC(=O)NCC(=O)N[C@H](CCC(=O)O)C(=O)O [N-acetylglycyl-D-glutamic-acid]
relative viability EC50 [1]: > 10 µM | relative viability EC50 [2]: > 10 µM | relative viability EC50 [3]: > 10 µM | relative viability EC50 [4]: > 10 µM | relative viability EC50 [5]: > 10 µM | drug sensitivity score [6]: 0 | drug sensitivity score [7]: 0 | drug sensitivity score [8]: 0 | drug sensitivity score [9]: 0 | drug sensitivity score [10]: 0 | cell viability ([11]; 1 nM): 110% | cell viability ([11]; 10 nM): 95.7% | cell viability ([11]; 100 nM): 98.6% | cell viability ([11]; 1000 nM): 102% | cell viability ([11]; 10000 nM): 100% | cell viability ([12]; 1 nM): 91.3% | cell viability ([12]; 10 nM): 104% | cell viability ([12]; 100 nM): 93% | cell viability ([12]; 1000 nM): 103% | cell viability ([12]; 10000 nM): 101% | cell viability ([13]; 1 nM): 109% | cell viability ([13]; 10 nM): 99.9% | cell viability ([13]; 100 nM): 103% | cell viability ([13]; 1000 nM): 97% | cell viability ([13]; 10000 nM): 99.6% | cell viability ([14]; 1 nM): 102% | cell viability ([14]; 10 nM): 102% | cell viability ([14]; 100 nM): 97.7% | cell viability ([14]; 1000 nM): 102% | cell viability ([14]; 10000 nM): 99.4% | cell viability ([15]; 1 nM): 94.5% | cell viability ([15]; 10 nM): 106% | cell viability ([15]; 100 nM): 98% | cell viability ([15]; 1000 nM): 93% | cell viability ([15]; 10000 nM): 95.7%

CC[C@@H](CO)NCCN[C@@H](CC)CO [ethambutol]
relative viability EC50 [1]: > 10 µM | relative viability EC50 [2]: > 10 µM | relative viability EC50 [3]: > 10 µM | relative viability EC50 [4]: > 10 µM | relative viability EC50 [5]: > 10 µM | drug sensitivity score [6]: 0 | drug sensitivity score [7]: 0 | drug sensitivity score [8]: 0 | drug sensitivity score [9]: 0 | drug sensitivity score [10]: 0 | cell viability ([11]; 1 nM): 93.3% | cell viability ([11]; 10 nM): 108% | cell viability ([11]; 100 nM): 90.3% | cell viability ([11]; 1000 nM): 95.2% | cell viability ([11]; 10000 nM): 98.7% | cell viability ([12]; 1 nM): 99.1% | cell viability ([12]; 10 nM): 92.3% | cell viability ([12]; 100 nM): 97.6% | cell viability ([12]; 1000 nM): 102% | cell viability ([12]; 10000 nM): 104% | cell viability ([13]; 1 nM): 92.3% | cell viability ([13]; 10 nM): 98.2% | cell viability ([13]; 100 nM): 90.8% | cell viability ([13]; 1000 nM): 99.1% | cell viability ([13]; 10000 nM): 102% | cell viability ([14]; 1 nM): 103% | cell viability ([14]; 10 nM): 98% | cell viability ([14]; 100 nM): 103% | cell viability ([14]; 1000 nM): 96.5% | cell viability ([14]; 10000 nM): 99.3% | cell viability ([15]; 1 nM): 98.9% | cell viability ([15]; 10 nM): 88.7% | cell viability ([15]; 100 nM): 96% | cell viability ([15]; 1000 nM): 90.4% | cell viability ([15]; 10000 nM): 96.7%

CCN[C@@H](C)Cc1cccc(C(F)(F)F)c1 [dexfenfluramine]
relative viability EC50 [1]: > 10 µM | relative viability EC50 [2]: > 10 µM | relative viability EC50 [3]: > 10 µM | relative viability EC50 [4]: > 10 µM | relative viability EC50 [5]: > 10 µM | drug sensitivity score [6]: 0 | drug sensitivity score [7]: 0 | drug sensitivity score [8]: 0 | drug sensitivity score [9]: 0 | drug sensitivity score [10]: 0 | cell viability ([11]; 1 nM): 106% | cell viability ([11]; 10 nM): 93.7% | cell viability ([11]; 100 nM): 105% | cell viability ([11]; 1000 nM): 82.9% | cell viability ([11]; 10000 nM): 97.5% | cell viability ([12]; 1 nM): 105% | cell viability ([12]; 10 nM): 114% | cell viability ([12]; 100 nM): 89.8% | cell viability ([12]; 1000 nM): 108% | cell viability ([12]; 10000 nM): 106% | cell viability ([13]; 1 nM): 99.4% | cell viability ([13]; 10 nM): 92.7% | cell viability ([13]; 100 nM): 100% | cell viability ([13]; 1000 nM): 90.7% | cell viability ([13]; 10000 nM): 94.7% | cell viability ([14]; 1 nM): 93.5% | cell viability ([14]; 10 nM): 96.7% | cell viability ([14]; 100 nM): 96.1% | cell viability ([14]; 1000 nM): 94.3% | cell viability ([14]; 10000 nM): 101% | cell viability ([15]; 1 nM): 97.4% | cell viability ([15]; 10 nM): 109% | cell viability ([15]; 100 nM): 105% | cell viability ([15]; 1000 nM): 118% | cell viability ([15]; 10000 nM): 113%
